# Test results published in patent publication US10428142B2, “Multipartite signaling proteins and uses thereof” (BLUEBIRD BIO, INC., priority 2013, dated 2019).
# Read-outs that look alike come from different tables or passages of the source.
# Legend:
# K562-CD19 cells [1] = test: Deactivation of DARIC cytotoxicity using an anti-bridging factor; type: cell-based, human
# Procedure: Deactivation of the DARIC system by the addition of a pharmacological agent that competes for binding to one of the multimerization domains was tested. Primary human T cells expressing either a traditional CD19 targeting CAR or primary human T cells expressing the CD19 targeting DARIC components (SEQ ID NO.:66) were co-incubated with 50:50 mixtures of K562-CD19 and K562-CD20 cells.
# K562-CD19 target cells [2] = tested on: K562-CD19 target cells
# Procedure: (§1) A broad range of bridging factor (rapamycin and everolimus) concentrations were tested to determine whether a DARIC system can function at clinically relevant concentrations. As in the Example 4, primary human T cells were isolated, activated, and then transduced with lentiviral vectors expressing a DARIC binding component (SEQ ID NOS.:1, 4, 7) and a DARIC signaling component (SEQ ID NOS.:15, 19, 23). The DARIC expressing T cells were then co-incubated with 50:50 mixtures of the K562-CD19 and K562-CD20 target cells to evaluate antigen-specific cytotoxicity. The overall ratio of T cells to K562 cells was 5:1 in all samples.
# K562-CD19 cells [3] = conditions: for elimination of K562-CD19 cells by bridging factor: rapamycin 10 nM or AP21967 100 nM, 5:1
# Procedure: The transduced T cells were then co-incubated with about a 50:50 mixture of the K562 target cells expressing either CD19 (K562-CD19) or CD20 (K562-CD20) to evaluate antigen-specific cytotoxicity. […] The DARIC antigen binding component includes a CD19 antigen binding scFv domain and a FKBP12 multimerization domain, which was linked to a mCherry fluorescent protein.
# In addition, two distinct T cell populations were mixed, wherein one population was expressing a DARIC antigen binding component and the other population was expressing a DARIC signaling component.
# K562-CD19 target cells [4] = test: Titration of bridging factors, DARIC T cell cytotoxicity; conditions: DARIC expressing T cells, 5:1, 50:50 K562-CD19:K562-CD20
# Procedure: as §1
smiles,measurement,setting,value
C=CC[C@@H]1/C=C(\C)C[C@H](C)C[C@H](OC)[C@H]2O[C@@](O)(C(=O)C(=O)N3CCCC[C@H]3C(=O)O[C@H](/C(C)=C/[C@@H]3CC[C@@H](O)[C@H](OC)C3)[C@H](C)[C@@H](O)CC1=O)[C@H](C)C[C@@H]2OC [FK506],reduction in antigen specific cytotoxicity when added,K562-CD19 cells [1]; CD19 targeting CAR T cells,minimal reduction
same,reduction in antigen specific cytotoxicity when added,K562-CD19 cells [1]; CD19 targeting DARIC T cells with rapamycin,marked reduction
CO[C@H]1C[C@@H]2CC[C@@H](C)[C@@](O)(O2)C(=O)C(=O)N2CCCC[C@H]2C(=O)O[C@H]([C@H](C)C[C@@H]2CC[C@@H](OCCO)[C@H](OC)C2)CC(=O)[C@H](C)/C=C(\C)[C@@H](O)[C@@H](OC)C(=O)[C@H](C)C[C@H](C)/C=C/C=C/C=C/1C [everolimus],cytotoxicity responses over bridging factor concentration,K562-CD19 target cells [2],maintained to sub-nanomolar drug concentrations
"CO[C@H]1[C@@H](O)[C@H](C)C[C@H](C)/C=C/C=C/C=C(\C)[C@@H](c2c[nH]c3c(C)cccc23)C[C@@H]2CC[C@@H](C)[C@@](O)(O2)C(=O)C(=O)N2CCCC[C@H]2C(=O)O[C@H]([C@H](C)C[C@@H]2CC[C@@H](O)[C@H](OC)C2)C[C@H](O)[C@H](C)/C=C(\C)[C@H]1O [AP21967, C-16-(S)-7-methylindolerapamycin]",elimination of K562-CD19 cells by bridging factor,K562-CD19 cells [3]; T cells with CD19 scFv-FKBP12 binding component and FRB (2021-2113) T2098L signaling component,elimination of the CD19 expressing K562 cells
same,elimination of K562-CD19 cells by bridging factor,K562-CD19 cells [3]; T cells with CD19 scFv-FKBP12 binding component and FRB signaling component,no effect on cell survival
CO[C@H]1C[C@@H]2CC[C@@H](C)[C@@](O)(O2)C(=O)C(=O)N2CCCC[C@H]2C(=O)O[C@H]([C@H](C)C[C@@H]2CC[C@@H](O)[C@H](OC)C2)CC(=O)[C@H](C)/C=C(\C)[C@@H](O)[C@@H](OC)C(=O)[C@H](C)C[C@H](C)/C=C/C=C/C=C/1C [rapamycin],cytotoxicity by bridging factor,"K562-CD19 cells [3]; mixed T cell populations, one expressing the binding component, the other the signaling component",cytotoxicity response against K562-CD19 cells
same,cytotoxicity responses over bridging factor concentration,K562-CD19 target cells [4],maintained to sub-nanomolar drug concentrations
